PMC11003488 (Journal of Enzyme Inhibition and Medicinal Chemistry, 2023)

Key:
HL-60(TB) = test: cells; type: cell-based; conditions: Homo sapiens
CAKI-1 = test: NCI-60 SRB growth inhibition, one-dose and five-dose; type: cell-based; conditions: Homo sapiens
SF-268 = test: as above; type: cell-based; conditions: Homo sapiens
786-0 = test: as above; type: cell-based; conditions: Homo sapiens
EKVX = test: as above; type: cell-based; conditions: Homo sapiens
IGROV1 = test: as above; type: cell-based; conditions: Homo sapiens
HCT-15 = test: as above; type: cell-based; conditions: Homo sapiens
MCF7 = test: as above; type: cell-based; conditions: Homo sapiens
UACC-62 = test: as above; type: cell-based; conditions: Homo sapiens
HCT-116 = test: as above; type: cell-based; conditions: Homo sapiens
HOP-92 = test: as above; type: cell-based; conditions: Homo sapiens
MOLT-4 = test: as above; type: cell-based; conditions: Homo sapiens
A549/ATCC = test: as above; type: cell-based; conditions: Homo sapiens
HCC-2998 = test: as above; type: cell-based; conditions: Homo sapiens
NCI-H23 = test: as above; type: cell-based; conditions: Homo sapiens
SK-MEL-28 = test: as above; type: cell-based; conditions: Homo sapiens
K-562 = test: as above; type: cell-based; conditions: Homo sapiens
NCI-H322M = test: as above; type: cell-based; conditions: Homo sapiens
NCI/ADR-RES = test: as above; type: cell-based; conditions: Homo sapiens
SNB-19 = test: as above; type: cell-based; conditions: Homo sapiens
RXF 393 = test: as above; type: cell-based; conditions: Homo sapiens
OVCAR-5 = test: as above; type: cell-based; conditions: Homo sapiens
SK-MEL-2 = test: as above; type: cell-based; conditions: Homo sapiens
PC-3 = test: as above; type: cell-based; conditions: Homo sapiens
SR = test: as above; type: cell-based; conditions: Homo sapiens
NCI-H460 = test: as above; type: cell-based; conditions: Homo sapiens
RPMI-8226 = test: as above; type: cell-based; conditions: Homo sapiens
SN12C = test: as above; type: cell-based; conditions: Homo sapiens, read-out: percent growth inhibition
OVCAR-3 = test: as above; type: cell-based; conditions: Homo sapiens
HS 578 T = test: as above; type: cell-based; conditions: Homo sapiens
BT-549 = test: as above; type: cell-based; conditions: Homo sapiens
SW-620 = test: as above; type: cell-based; conditions: Homo sapiens
[1] = system: NCI 60-cell line panel (full panel); test: NCI-60 SRB growth inhibition, full panel mean / MG-MID; type: cell-based, human
M14 = test: NCI-60 SRB growth inhibition, one-dose and five-dose; type: cell-based; conditions: Homo sapiens
SNB-75 = test: as above; type: cell-based; conditions: Homo sapiens
SF-539 = test: as above; type: cell-based; conditions: Homo sapiens
T-47D = test: as above; type: cell-based; conditions: Homo sapiens, T47D
U251 = test: as above; type: cell-based; conditions: Homo sapiens
NCI-H522 = test: as above; type: cell-based; conditions: Homo sapiens
A498 = test: as above; type: cell-based; conditions: Homo sapiens
TK-10 = test: as above; type: cell-based; conditions: Homo sapiens
OVCAR-8 = test: as above; type: cell-based; conditions: Homo sapiens
[2] = read-out: percent growth inhibition

CC(=O)Nc1ccc(/C=C/C(=O)c2cccc(NCc3ccc(CO)cc3)c2)cc1 [Compound 5j, (E)-N-(4–(3-(3-((4-(hydroxymethyl)benzyl)amino)phenyl)-3-oxoprop-1-en-1-yl)phenyl) acetamide]
GI50 (HL-60(TB); HL-60): 11.6 µM
inhibition at 10 µM (HL-60(TB); HL-60, read-out: percent growth inhibition): 138%
GI50 (CAKI-1; CAKI-1): 14.8 µM
inhibition at 10 µM (CAKI-1; CAKI-1, read-out: percent growth inhibition): 134%
GI50 (SF-268; SF-268): 15.4 µM
inhibition at 10 µM (SF-268; SF-268, read-out: percent growth inhibition): 88.8%
GI50 (786-0; 786-0): 14.1 µM
inhibition at 10 µM (786-0; 786-0, read-out: percent growth inhibition): 186%
GI50 (EKVX): 14.4 µM
inhibition at 10 µM (EKVX; [2]): 88.9%
GI50 (IGROV1; IGROV-1): 6.71 µM
inhibition at 10 µM (IGROV1; IGROV-1, read-out: percent growth inhibition): 119%
GI50 (HCT-15; HCT-15): 4.63 µM
inhibition at 10 µM (HCT-15; HCT-15, read-out: percent growth inhibition): 140%
GI50 (MCF7; MCF7): 3.19 µM
inhibition at 10 µM (MCF7; MCF7, read-out: percent growth inhibition): 126%
GI50 (UACC-62; UACC-62): 10.8 µM
inhibition at 10 µM (UACC-62; UACC-62, read-out: percent growth inhibition): 156%
GI50 (HCT-116; HCT-116, HCT-116, five-dose screening): 3.35 µM
inhibition at 10 µM (HCT-116; HCT-116, read-out: percent growth inhibition): 193%
GI50 (HOP-92; HOP-92): 14.1 µM
inhibition at 10 µM (HOP-92; HOP-92, read-out: percent growth inhibition): 34.6%
GI50 (MOLT-4; MOLT-4): 2.85 µM
inhibition at 10 µM (MOLT-4; MOLT-4, read-out: percent growth inhibition): 120%
GI50 (A549/ATCC; A549): 17.2 µM
inhibition at 10 µM (A549/ATCC; A549, read-out: percent growth inhibition): 34.3%
GI50 (HCC-2998; HCC 2998): 13.2 µM
inhibition at 10 µM (HCC-2998; HCC 2998, read-out: percent growth inhibition): 199%
GI50 (NCI-H23; NCI-H23): 13.9 µM
inhibition at 10 µM (NCI-H23; NCI-H23, read-out: percent growth inhibition): 95.9%
GI50 (SK-MEL-28; SK-MEL-28): 13.4 µM
inhibition at 10 µM (SK-MEL-28; SK-MEL-28, read-out: percent growth inhibition): 167%
GI50 (K-562; K562): 3.43 µM
inhibition at 10 µM (K-562; K562, read-out: percent growth inhibition): 104%
GI50 (NCI-H322M): 14.4 µM
inhibition at 10 µM (NCI-H322M; [2]): 38.8%
GI50 (NCI/ADR-RES): 16.8 µM
inhibition at 10 µM (NCI/ADR-RES; [2]): 126%
GI50 (SNB-19; SNB-19): 10.1 µM
inhibition at 10 µM (SNB-19; SNB-19, read-out: percent growth inhibition): 114%
GI50 (RXF 393; RXF 393): 11.8 µM
inhibition at 10 µM (RXF 393; RXF 393, read-out: percent growth inhibition): 190%
GI50 (OVCAR-5; OVCAR-5): 12.6 µM
inhibition at 10 µM (OVCAR-5; OVCAR-5, read-out: percent growth inhibition): 74%
GI50 (SK-MEL-2; SK-MEL-2): 15.3 µM
inhibition at 10 µM (SK-MEL-2; SK-MEL-2, read-out: percent growth inhibition): 53.9%
GI50 (PC-3; PC-3): 12.3 µM
inhibition at 10 µM (PC-3; PC-3, read-out: percent growth inhibition): 81.8%
GI50 (SR): 2.61 µM
GI50 (NCI-H460; NCI-H460): 13.4 µM
inhibition at 10 µM (NCI-H460; NCI-H460, read-out: percent growth inhibition): 148%
GI50 (RPMI-8226; RPMI-8226): 2.84 µM
inhibition at 10 µM (RPMI-8226; RPMI-8226, read-out: percent growth inhibition): 134%
inhibition at 10 µM (SN12C): 149%
GI50 (OVCAR-3; OVCAR-3): 4.63 µM
inhibition at 10 µM (OVCAR-3; OVCAR-3, read-out: percent growth inhibition): 138%
GI50 (HS 578 T): 18.9 µM
inhibition at 10 µM (HS 578 T; [2]): 57.9%
GI50 (BT-549; BT-549): 12.1 µM
inhibition at 10 µM (BT-549; BT-549, read-out: percent growth inhibition): 119%
GI50 (SW-620; SW-620): 4.27 µM
inhibition at 10 µM (SW-620; SW-620, read-out: percent growth inhibition): 157%
GI50 ([1]; Homo sapiens, 60 cell, read-out: Full panel GI50 mean): 10.3 µM
Full panel Mean GI % ([1]; mean over NCI-60 panel, single dose 10 µM): 120.44%
GI50 (M14; M14): 14.3 µM
inhibition at 10 µM (M14; M14, read-out: percent growth inhibition): 146%
GI50 (SNB-75; SNB-75): 11.9 µM
inhibition at 10 µM (SNB-75; SNB-75, read-out: percent growth inhibition): 18.2%
GI50 (SF-539; SF-539): 7.37 µM
inhibition at 10 µM (SF-539; SF-539, read-out: percent growth inhibition): 181%
GI50 (T-47D): 13.5 µM
inhibition at 10 µM (T-47D; [2]): 70.2%
GI50 (U251; U-251): 3.6 µM
inhibition at 10 µM (U251; U-251, read-out: percent growth inhibition): 195%
GI50 (NCI-H522; NCI-H522): 5 µM
inhibition at 10 µM (NCI-H522; NCI-H522, read-out: percent growth inhibition): 178%
GI50 (A498; A498): 15 µM
inhibition at 10 µM (A498; A498, read-out: percent growth inhibition): 3.83%
GI50 (TK-10; TK-10): 16.1 µM
inhibition at 10 µM (TK-10; TK-10, read-out: percent growth inhibition): 95.1%
GI50 (OVCAR-8; OVCAR-8): 14.8 µM
inhibition at 10 µM (OVCAR-8; OVCAR-8, read-out: percent growth inhibition): 130%
